target: biotinylated KRAS G12C protein (GMP-PNP loaded) and GST-tagged Ras binding domain of c-RAF (Homo sapiens, UniProt P01116, C118S/C51S/C80L/G12C); test: RAS:RAF-RBD binding assay (TR-FRET); conditions: 30-minute incubation of compound with KRAS G12C before RAF-RBD; Table 4; read-out: IC50

| Compound | IC50 |
| --- | --- |
| Cc1nc2c3c(c(C(F)(F)F)cc2n1C)-c1cccn2c(C(=O)c4cc(F)c(NC(=O)/C=C/CN5CC(F)C5)c(F)c4)cc(c12)CCN3C [Example 285, (E)-N-(2,6-difluoro-4-(9,10,12-trimethyl-7-(trifluoromethyl)-9,12,13,14-tetrahydroimidazo[4″,5″:5′,6′]benzo[1′,2′:2,3]azocino[4,5,6-hi]indolizine-2-carbonyl)phenyl)-4-(3-fluoroazetidin-1-yl)but-2-enamide] | 0.085 µM |
| COCc1nc2c3c(c(OC)cc2n1C)-c1cccn2c(C(=O)c4cc(F)c(NC(=O)/C=C/CN5CC[C@H](O)C5)c(F)c4)cc(c12)CCN3C [Example 289, mono(2-(3,5-difluoro-4-((E)-4-((3S)-3-hydroxy-pyrrolidin-1-ium-1-yl)but-2-enamido)benzoyl)-7-methoxy-10-(methoxy-methyl)-9,12-dimethyl-9,12,13,14-tetrahydro-imidazo[4″,5″:5′,6′]benzo-[1′,2′:2,3]azocino[4,5,6-hi]indolizin-11-ium) mono(2,2,2-trifluoro-acetate)] | 0.0688 µM |
| COCc1nc2c3c(c(OC)cc2n1C)-c1cccn2c(C(=O)c4cc(F)c(NC(=O)/C=C/CNC(C)(C)C5CC5)c(F)c4)cc(c12)CCN3C [Example 290, mono((E)-2-(4-(4-((2-cyclopropylpropan-2-yl)-ammonio)but-2-enamido)-3,5-difluorobenzoyl)-7-methoxy-10-(methoxy-methyl)-9,12-dimethyl-9,12,13,14-tetrahydro-imidazo[4″,5″:5′,6′]benzo-[1′,2′:2,3]azocino[4,5,6-hi]indolizin-11-ium) mono(2,2,2-trifluoro-acetate)] | 0.0111 µM |
| COCc1nc2c3c(c(OC)cc2n1C)-c1cccn2c(C(=O)c4cc(F)c(NC(=O)/C=C/CNC5CC6(COC6)C5)c(F)c4)cc(c12)CCN3C [Example 291, (E)-4-((2-oxaspiro[3.3]-heptan-6-yl)amino)-N-(2,6-difluoro-4-(7-meth-oxy-10-(methoxymethyl)-9,12-dimethyl-9,12,13,14-tetrahydroimidazo[4″,5″: 5′,6′]benzo[1′,2′:2,3]-azocino[4,5,6-hi]indol-izine-2-carbonyl)phenyl) but-2-enamide] | 0.00555 µM |
| Cc1nc2c3c(c(C(F)(F)F)cc2n1C)-c1cccn2c(C(=O)c4cc(F)c(NC(=O)C(F)=CCN5CCCC5CO)c(F)c4)cc(c12)CCO3 [Example 294, mono(2-(3,5-difluoro-4-((Z)-2-fluoro-4-(2S)-2-(hydroxymethyl)pyrrol-idin-1-ium-1-yl)but-2-enamido)benzoyl)-9,10-dimethyl-7-(trifluorometh-yl)-13,14-dihydro-9H-imidazo[4″,5″:5′,6′]benzo-[1′,2′:2,3]oxocino[4,5,6-hi]indolizin-11-ium) mono(2,2,2-trifluoro-acetate)] | 0.0596 µM |
| Cc1nc2c3c(c(C(F)(F)F)cc2n1C)-c1cccn2c(C(=O)c4cc(F)c(NC(=O)/C(F)=C/CNCC5(CO)CC5)c(F)c4)cc(c12)CCO3 [Example 295, mono((Z)-2-(3,5-difluoro-4-(2-fluoro-4-(((1-(hydroxymethyl)cyclo-propyl)methyl)ammonio)-but-2-enamido)benzoyl)-9,10-dimethyl-7-(trifluoro-methyl)-13,14-dihydro-9H-imidazo[4″,5″:5′,6′]-benzo[1′,2′:2,3]oxocino-[4,5,6-hi]indolizin-11-ium) mono(2,2,2-trifluoro-acetate)] | 0.0253 µM |
| (2S)-1-((Z)-4-((4-(9,10- dimethyl-7-(trifluorometh- yl)-13,14-dihydro-9H- imidazo[4″,5″:5′,6′]benzo- [1′,2′:2,3loxocino[4,5,6- hi]indolizine-2-carbonyl)- 2,6-difluorophenyl)amino)- 3-fluoro-4-oxobut-2-en-1- yl)-2-(hydroxymethyl)- azetidin-1-ium2,2,2- trifluoroacetate [Example 262] | 0.0151 µM |
| (Z)-N-(4-((4-(9,10-dimeth- yl-7-(trifluoromethyl)- 13,14-dihydro-9H-imid- azo[4″,5″:5′6′]benzo- [1′,2′:2,3]oxocino[4,5,6- hi]indolizine-2-carbonyl)- 2,6-difluorophenyl)amino)- 3-fluoro-4-oxobut-2-en-1- yl)-1-methylcyclopropan- 1-aminium2,2,2-trifluoro- acetate [Example 261] | 0.0222 µM |

The remaining compounds from weak to strong by IC50, led by results:

| IC50 | Compound |
| --- | --- |
| 0.0928 µM | COCc1nc2c3c(c(OC)cc2n1C)-c1cccn2c(C(=O)c4cc(F)c(NC(=O)/C(F)=C/CNC5(C)CC5)c(F)c4)cc(c12)CCN3C [Example 286, (Z)-N-(2,6-difluoro-4-(7-methoxy-10-(methoxymethyl)-9,12-dimethyl-9,12,13,14-tetrahydroimidazo[4″,5″:5′,6′]benzo[1′,2′:2,3]azocino[4,5,6-hi]indolizine-2-carbonyl)phenyl)-2-fluoro-4-((1-methylcyclopropyl)amino)but-2-enamide] |
| 0.0647 µM | CN1CCc2cc(C(=O)c3cc(F)c(NC(=O)/C=C/CNC4(C)COC4)c(F)c3)n3cccc(c23)-c2c(C(F)(F)F)cc3c(cnn3C)c21 [Example 283, (E)-N-(4-(9,12-dimethyl-7-(trifluoromethyl)-9,12,13,14-tetrahydroindolizino[8′,1′:4,5,6]azocino[2,3-e]indazole-2-carbonyl)-2,6-difluorophenyl)-4-((3-methyloxetan-3-yl)amino)but-2-enamide] |
| 0.0267 µM | Cc1nc2c3c(c(C(F)(F)F)cc2n1C)-c1cccn2c(C(=O)c4cc(F)c(NC(=O)/C(F)=C/CNC5CC6(COC6)C5)c(F)c4)cc(c12)CCO3 [Example 297, (Z)-4-((2-oxaspiro[3.3]-heptan-6-yl)amino)-N-(4-(9,10-dimethyl-7-(trifluoromethyl)-13,14-dihydro-9H-imidazo-[4″,5″:5′,6′]benzo[1′,2′: 2,3]oxocino[4,5,6-hi]-indolizine-2-carbonyl)-2,6-difluorophenyl)-2-fluorobut-2-enamide] |
| 0.00815 µM | COCc1nc2c3c(c(OC)cc2n1C)-c1cccn2c(C(=O)c4cc(F)c(NC(=O)/C=C/CNC(C)(C)C)c(F)c4)cc(c12)CCN3C [Example 288, mono((E)-2-(4-(4-(tert-butylammonio)but-2-enamido)-3,5-difluoro-benzoyl)-7-methoxy-10-(methoxymethyl)-9,12-dimethyl-9,12,13,14-tetra-hydroimidazo[4″,5″:5′,6′]-benzo[1′,2′:2,3]azocino-[4,5,6-hi]indolizin-11-ium) mono-(2,2,2-trifluoroacetate)] |
| 0.00122 µM | Cc1nc2c3c(c(OC(F)F)cc2n1C)-c1cccn2c(C(=O)c4cc(F)c(NC(=O)/C=C/CNC5(C)CC5)c(F)c4)cc(c12)CCN3C [Example 300, (E)-N-(4-(7-(difluoromethoxy)-9,10,12-trimethyl-9,12,13,14-tetrahydroimidazo[4″,5″:5′,6′]benzo[1′,2′:2,3]azocino[4,5,6-hi]indolizine-2-carbonyl)-2,6-difluorophenyl)-4-((1-methylcyclopropyl)amino)but-2-enamide] |

Source: patent US20240262842A1, “SMALL MOLECULE INHIBITORS OF KRAS G12C MUTANT” (Merck Sharp & Dohme LLC, priority 2021, published 2024)
